Results reported in ChEMBL document CHEMBL4823278, “Metal binding 6-arylthio-3-hydroxypyrimidine-2,4-diones inhibited human cytomegalovirus by targeting the pUL89 endonuclease of the terminase complex” (Eur J Med Chem, 2021).
pIC50: −log10 of the molar value.

Assays:
[1] = biological target: T1, Tripartite terminase subunit 3 (Human betaherpesvirus 5) (UniProt P16732); experiment: Inhibition of human cytomegalovirus pUL89 endonuclease activity using 60 bp dsDNA substrate at 20 uM incubated for 30 mins by ELISA-based biochemical assay relative to control
T1 sequence (whole entry): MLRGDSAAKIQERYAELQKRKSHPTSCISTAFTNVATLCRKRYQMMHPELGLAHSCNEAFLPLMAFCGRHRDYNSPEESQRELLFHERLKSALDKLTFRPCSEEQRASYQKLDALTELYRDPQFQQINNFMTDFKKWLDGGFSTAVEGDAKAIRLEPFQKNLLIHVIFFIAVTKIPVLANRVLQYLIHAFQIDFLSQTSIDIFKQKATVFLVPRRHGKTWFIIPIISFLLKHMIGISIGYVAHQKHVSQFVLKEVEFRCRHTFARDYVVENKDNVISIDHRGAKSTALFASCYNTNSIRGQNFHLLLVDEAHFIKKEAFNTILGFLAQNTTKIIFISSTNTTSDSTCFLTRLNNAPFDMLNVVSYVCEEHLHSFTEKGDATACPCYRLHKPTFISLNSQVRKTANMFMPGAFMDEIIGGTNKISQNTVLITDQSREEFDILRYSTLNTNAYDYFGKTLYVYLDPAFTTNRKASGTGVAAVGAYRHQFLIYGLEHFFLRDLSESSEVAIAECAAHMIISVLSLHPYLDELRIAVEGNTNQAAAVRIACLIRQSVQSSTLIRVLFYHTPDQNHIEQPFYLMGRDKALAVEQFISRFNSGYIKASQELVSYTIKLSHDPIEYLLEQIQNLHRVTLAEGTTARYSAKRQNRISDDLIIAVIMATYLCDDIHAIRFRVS

Human betaherpesvirus 5 = format: functional; details: Human betaherpesvirus 5, HEL 299, time 168 hrs
[2] = (§1) Cytotoxicity against human HEL 299 cells assessed as cell viability at 10 uM incubated for 168 hrs by MTS-based tetrazolium reduction assay relative to control; details: HEL 299 cells, read-out: Activity
[3] = Apparent permeability of the compound incubated for 5 hrs by LC-MS/MS analysis based PAMPA method; format: ADME; details: pampa, 5 h
[4] = biological target: T2, Tripartite terminase subunit 3 (Human betaherpesvirus 5, UniProt P16732)
T2 sequence (P16732 whole entry): T1 sequence (whole entry)
Description: Inhibition of human cytomegalovirus pUL89 endonuclease activity using 60 bp dsDNA substrate incubated for 30 mins by ELISA-based biochemical assay

[5] = biological target: T1, Tripartite terminase subunit 3 (Human betaherpesvirus 5); details: dose 20.0 µM
HEL 299 [6] = experiment: as §1; details: hel 299, 168 h, 10 µM
HEL 299 [7] = details: human, hel 299, 168 h

| Compound | inhibition [1] [%] | inhibition at 10 µM (Human betaherpesvirus 5) [%] | viability at 168 h, 10 µM [2] [%] | Papp [3] | pIC50 [4] | ΔTm [5] [°C] | Activity (HEL 299 [6]) [%] | CC50 (HEL 299 [7]) [µM] |
| --- | --- | --- | --- | --- | --- | --- | --- | --- |
| O=c1cc(Sc2ccccc2)[nH]c(=O)n1O | 30 | -16 | 108 |  |  |  |  |  |
| CCn1c(Sc2cccc(F)c2)cc(=O)n(O)c1=O | 34 | 12 | 126 | 3.4 10^-6 cm/s | 4.64 | 0.86 |  |  |
| CCn1c(Sc2cccc(Cl)c2)cc(=O)n(O)c1=O | 59 | 101 | 1.3 | 5.1 10^-6 cm/s | 5.24 | 0.74 |  |  |
| O=c1cc(Sc2cccc(-c3cccc(C(F)(F)F)c3)c2)[nH]c(=O)n1O | 20 | 33 | 118 |  |  |  |  |  |
| CCn1c(Sc2ccc(Br)cc2)cc(=O)n(O)c1=O | 66 | 100 | 16 |  |  |  |  |  |
| O=c1cc(Sc2cccc(F)c2)[nH]c(=O)n1O | 40 | 83 |  |  |  |  | 65 |  |
| CCc1ccccc1Sc1cc(=O)n(O)c(=O)n1C |  | 87 | 108 | 5.8 10^-6 cm/s |  |  |  |  |
| COc1cccc(Sc2cc(=O)n(O)c(=O)[nH]2)c1 | 92 | -13 | 114 | 0.21 10^-6 cm/s | 5.72 | 1.8 |  |  |
| Cn1c(Sc2ccc(Br)cc2)cc(=O)n(O)c1=O |  | 57 | 113 |  |  |  |  |  |
| Cn1c(Sc2cccc3ccccc23)cc(=O)n(O)c1=O |  | 98 | 111 | 5.1 10^-6 cm/s |  |  |  |  |
| Cn1c(Sc2ccc(C(F)(F)F)cc2)cc(=O)n(O)c1=O |  | 50 | 107 |  |  |  |  |  |
| O=c1cc(Sc2ccc([N+](=O)[O-])cc2)[nH]c(=O)n1O | 58 | -5.1 | 115 | 0.017 10^-6 cm/s | 5.44 | 2.8 |  |  |
| Cc1ccc(-c2cccc(Nc3cc(=O)n(O)c(=O)[nH]3)c2)c(C)c1 |  |  |  |  | 5.46 | -2.2 |  |  |
| O=c1cc(Sc2ccc(Br)cc2)[nH]c(=O)n1O | 14 | 12 | 129 |  |  |  |  |  |
| CCn1c(Sc2ccccc2Br)cc(=O)n(O)c1=O | 64 | 100 | 16 |  |  |  |  |  |
| O=c1cc(Sc2cccc(-c3ccc(C(F)(F)F)cc3)c2)[nH]c(=O)n1O | 22 | 70 | 110 |  |  |  |  |  |
| O=c1cc(Sc2cccc(Br)c2)[nH]c(=O)n1O | 16 | -6 | 123 |  |  |  |  |  |
| Cn1c(Sc2ccc(Cl)cc2)cc(=O)n(O)c1=O |  | 35 | 132 | 4.5 10^-6 cm/s |  |  |  |  |
| O=C(O)c1cn(Cc2ccc(Cl)c(F)c2)cc(O)c1=O |  |  |  |  |  | 2.4 |  |  |
| O=c1cc(Sc2ccccc2Br)[nH]c(=O)n1O | 21 | -14 | 101 |  |  |  |  |  |
| CCn1c(Sc2cccc(Br)c2)cc(=O)n(O)c1=O | 71 | 100 | 7 |  |  |  |  |  |
| Nc1nc(O)c2ncn(COC(CO)CO)c2n1 [GANCICLOVIR] |  |  |  |  |  |  |  | > 50 |

| Compound | inhibition [1] [%] | inhibition at 10 µM (Human betaherpesvirus 5) [%] | viability at 168 h, 10 µM [2] [%] | Papp [3] | pIC50 [4] | ΔTm [5] [°C] | Activity (HEL 299 [6]) [%] | CC50 (HEL 299 [7]) [µM] |
| --- | --- | --- | --- | --- | --- | --- | --- | --- |
| O=c1cc(Sc2ccc(C(F)(F)F)cc2)[nH]c(=O)n1O | 16 | -9 | 119 |  |  |  |  |  |
| O=c1cc(Sc2ccc(-c3ccc(C(F)(F)F)cc3)cc2)[nH]c(=O)n1O | 12 | 84 | 107 |  |  |  |  |  |
| Cn1c(Sc2ccccc2)cc(=O)n(O)c1=O | 65 | 21 | 115 |  |  |  |  |  |
| O=c1cc(Sc2ccc(F)cc2)[nH]c(=O)n1O | 54 | -2.3 | 118 |  |  |  |  |  |
| Cn1c(Sc2ccc(F)cc2)cc(=O)n(O)c1=O | 90 | 0 | 117 | 3 10^-6 cm/s | 4.92 | 0.86 |  |  |
| CCn1c(Sc2ccc(F)cc2)cc(=O)n(O)c1=O |  | 67 | 114 | 4.1 10^-6 cm/s |  |  |  |  |
| Cn1c(Sc2cccc(C(F)(F)F)c2)cc(=O)n(O)c1=O |  | 68 | 99 |  |  |  |  |  |
| O=c1cc(Sc2cccc(-c3ccc(Cl)cc3)c2)[nH]c(=O)n1O |  | 81 | 100 |  |  |  |  |  |
| O=c1cc(Sc2ccc(O)cc2)[nH]c(=O)n1O | 27 | 1 | 118 |  |  |  |  |  |
| COc1cccc(-c2ccc(Sc3cc(=O)n(O)c(=O)[nH]3)cc2)c1 | 11 | 71 | 107 |  |  |  |  |  |
| COc1cccc(Sc2cc(=O)n(O)c(=O)n2C)c1 |  | 91 | 135 | 2.4 10^-6 cm/s |  |  |  |  |
| O=c1cc(Sc2cccc(-c3ccc(F)cc3)c2)[nH]c(=O)n1O | 10 | 19 | 100 |  |  |  |  |  |
| CCc1ccc(Sc2cc(=O)n(O)c(=O)n2C)cc1 | 67 | 21 | 121 | 6.6 10^-6 cm/s | 4.93 | 0.29 |  |  |
| CCn1c(Sc2ccc(Cl)cc2)cc(=O)n(O)c1=O | 76 | 98 | 40 |  |  |  |  |  |
| Cn1c(Sc2cccc(Br)c2)cc(=O)n(O)c1=O |  | 100 | 14 |  | 5.19 | 0.76 |  |  |
| O=c1cc(Sc2ccc(-c3ccc(F)cc3)cc2)[nH]c(=O)n1O | 19 | 79 | 99 |  |  |  |  |  |
| Cn1c(Sc2cccc(F)c2)cc(=O)n(O)c1=O | 37 | -3.8 | 125 | 2.5 10^-6 cm/s | 4.62 | 0.56 |  |  |
| CCn1c(Sc2ccccc2F)cc(=O)n(O)c1=O | 75 | -0.7 |  |  |  |  | 124 |  |
| O=c1cc(Sc2ccc(-c3ccc(Cl)cc3)cc2)[nH]c(=O)n1O | 11 | 82 | 102 |  |  |  |  |  |
| Cn1c(Sc2ccccc2Br)cc(=O)n(O)c1=O |  |  | 117 |  |  |  |  |  |
| COc1ccc(-c2cccc(Sc3cc(=O)n(O)c(=O)[nH]3)c2)cc1F | 16 | -11 | 106 |  |  |  |  |  |
| Cc1ccc(-c2ccc(Nc3cc(=O)n(O)c(=O)n3C)cc2)cc1 |  |  |  |  | 5.48 | -2.8 |  |  |
